Results: PubChem BioAssay (NCI)
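Cells were grown in 96-well plates and exposed to each compound for 48 hours at five concentrations; endpoints were interpolated linearly between bracketing concentrations, or set to the highest concentration if not reached. TGI denotes the concentration required for complete inhibition of growth.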

What was measured:
Experiment in all cases: DTP human tumour cell line panel, 48 h
[1] = system: DMS 273 small cell lung
[2] = system: HCC-2998 colon
[3] = system: HCT-116 colon
[4] = system: K-562 leukemia
[5] = system: KM12 colon
[6] = system: M14 melanoma
[7] = system: MALME-3M melanoma
[8] = system: MDA-MB-435
[9] = system: NCI-H460 lung
[10] = system: OVCAR-3 ovarian
[11] = system: OVCAR-4 ovarian
[12] = system: RXF 393 renal
[13] = system: SF-268 CNS
[14] = system: SF-295 CNS
[15] = system: SF-539 CNS
[16] = system: SK-MEL-5 melanoma
[17] = system: SNB-19 CNS
[18] = system: TK-10 renal
[19] = system: UO-31 renal
[20] = system: HOP-62 NSCLC

Row | SMILES | TGI [1] [µM] | TGI [2] [µM] | TGI [3] [µM] | TGI [4] [µM] | TGI [5] [µM] | TGI [6] [µM] | TGI [7] [µM] | TGI [8] [µM] | TGI [9] [µM] | TGI [10] [µM] | TGI [11] [µM] | TGI [12] [µM] | TGI [13] [µM] | TGI [14] [µM] | TGI [15] [µM] | TGI [16] [µM] | TGI [17] [µM] | TGI [18] [µM] | TGI [19] [µM] | TGI [20] [µM]
1 | O=C1C(Cl)=C(N2CCN(CCOCCO)CC2)C(=O)c2ccccc21 | 31.2 | 32.1 | 11.1 | > 21.7 | 31.6 | 22.6 | 15.2 | 12.8 | 32.8 | 9.44 | 6.26 | 8.91 | 30.3 | 32 | 33.1 | 28.2 | > 56.3 | 34.7 | 21.2 | –
2 | CC(=O)NNc1nc(C)c(C(/C=C/c2ccc(Cl)cc2)=N\N=C(N)N)s1 | > 100 | > 100 | > 100 | > 100 | > 100 | > 100 | > 100 | – | > 100 | > 100 | > 100 | > 100 | > 100 | > 100 | > 100 | > 100 | > 100 | > 100 | > 100 | > 100
3 | COc1ccc(Cc2cc(OC)c(OC)c(OC)c2)cc1 | > 100 | 1.4 | 12.4 | 22 | > 100 | > 100 | > 100 | > 100 | 47 | 0.424 | > 100 | 3.38 | > 100 | > 29.4 | 1.76 | 21.2 | > 100 | > 100 | 90.5 | > 100
